Data from patent publication US12357679B2, “Albumin-based non-covalent complexes and methods of use thereof” (Spectral Platforms, Inc., priority 2015, dated 2025).
Converted amounts (≈) assume the structure as drawn.

Assays:
[1] = system: S. aureus; assay: Rapid MIC prediction with lycopene/HSA assay (UV-Vis absorbance after 30 min incubation); assay type: cell-based; details: Staphylococcus aureus, 0.5 h
Description: (§1) The present lycopene/HSA complexes were used to characterize the minimum inhibitory concentration (MIC) of antimicrobial compounds. A lycopene/HSA complex, prepared as described herein, was mixed with a series of samples that all had the same initial amount of S. aureus (200 CFU/mL of PHS), and which was incubated with a varying amount of vancomycin for 30 minutes. […] Upon the addition of the lycopene/HSA assay, aggregation of the lycopene/HSA increased in a manner that scales with S. aureus concentration (and thus on the vancomycin concentration). These changes were characterized via the changes in the UV-Vis spectrum, depicted at the bottom in FIG. 23. The chart on the top in FIG. 23 depicts the absorbance at 600 nm for these samples after another 18 hours of incubation. This absorbance was dominated by the pathogen concentration after 18 hours of growth.
(§2) FIG. 23. Rapid prediction of the MIC of S. aureus at 200 CFU/mL. […] Lycopene (1.125 mM), fucoxanthin (0.375 mM), additional vancomycin (so as to maintain the same concentration of vancomycin) and additional 3440 μl PBS (to bring the total volume to 6 ml) was added and the UV-Vis absorbance was measured. […] The chart on the top depicts the absorbance at 600 nm after 18 hour incubation at 37° C. […]

[2] = system: S. aureus; assay: MIC by absorbance at 600 nm after 18 hour incubation; assay type: cell-based; details: Staphylococcus aureus; absorbance at 600 nm after 18 hour incubation at 37° C.; read-out: actual MIC (break point)
Description: as §1, §2

[3] = system: Candida albicans (ATCC 90028); details: C. albicans; cited from earlier work
[4] = system: C. glabrata (ATCC 2001); details: cited from earlier work
[5] = system: most gram positive organisms; details: cited from earlier work
[6] = ingestion of a 200 mg tablet, microcrystalline suspension in oil-wax base; cited from earlier work
[7] = cited from earlier work

`CN[C@H](CC(C)C)C(=O)N[C@H]1C(=O)N[C@@H](CC(N)=O)C(=O)N[C@H]2C(=O)N[C@H]3C(=O)N[C@H](C(=O)N[C@H](C(=O)O)c4cc(O)cc(O)c4-c4cc3ccc4O)[C@H](O)c3ccc(c(Cl)c3)Oc3cc2cc(c3O[C@@H]2O[C@H](CO)[C@@H](O)[C@H](O)[C@H]2O[C@H]2C[C@](C)(N)[C@H](O)[C@H](C)O2)Oc2ccc(cc2Cl)[C@H]1O` [vancomycin] gave an MIC ([1]; read-out: predicted MIC) of about 0.6 µg/mL (≈ 0.414 µM), an MIC ([1]; read-out: predicted MIC (break point)) of 200 µg/mL (≈ 138 µM) and an MIC [2] of 0.2 µg/mL (≈ 0.138 µM).

For `C[C@@H]1[C@H](O)[C@@H](C)/C=C/C=C/C=C/C=C/C=C/C=C/C=C/[C@H](O[C@@H]2O[C@H](C)[C@@H](O)[C@H](N)[C@@H]2O)C[C@@H]2O[C@](O)(C[C@@H](O)C[C@@H](O)[C@H](O)CC[C@@H](O)C[C@@H](O)CC(=O)O[C@H]1C)C[C@H](O)[C@H]2C(=O)O` [Amphotericin B], the “previously reported minimum inhibitory concentration MIC” value [3] is given as “about 0.5 μg/mL” and the “previously reported minimum inhibitory concentration MIC” value [4] is given as “about 0.5 μg/mL”.

In the case of `CC(C)/N=c1\cc2n(-c3ccc(Cl)cc3)c3ccccc3nc-2cc1Nc1ccc(Cl)cc1` [Clofazimine], the MIC [5] is listed as “about 0.4 μg/mL”, the peak plasma concentration [6] is listed as 0.41 µg/mL and the water solubility [7] is listed as “not water soluble”.
